In PMC5887109, “Unravelling the Molecular Determinants of Bee Sensitivity to Neonicotinoid Insecticides” (Current Biology, 2018):

Columns and labels:
CYP9Q1 [1] = molecular target: T1, CYP9Q1 (Apis mellifera, UniProt A0A7M7GTV9); experiment: Activity of recombinant CYP9Q1 against fluorescent coumarin model substrates; type: biochemical, A. mellifera
Method: (§1) The activity of individual A. mellifera and B. terrestris recombinant P450s were tested against seven fluorescent model substrates (all purchased from Sigma); 7-methoxy-coumarin (MC), 7-Methoxy-4-(tri-fluoromethyl)-coumarin (MFC), 7-ethoxy-coumarin (EC), 7-benzyloxy-4-(trifluoromethyl)-coumarin (BFC), 7-ethoxy-4-trifluoro-methylcoumarin (EFC), 7-benzyloxymethoxy-4-trifluoromethyl coumarin (BOMFC), and 7-p-methoxy-benzyloxy-4-trifluoro coumarin (MOBFC). Assays were carried out in black flat-bottomed 96-well plates in a 100 μL reaction containing 2 pmol of P450 per 50 μg of protein (B. terrestris) or 50 μg/well (A. mellifera), 1 mM of NADPH (Sigma) and […] of a model substrate (Sigma). […] Data were recorded using a SpectraMax Gemini XPS (B. terrestris) or a SpectraMax M2 (A. mellifera) at the excitation/emission wavelength suitable for each model substrate (MC, EC at 390-465, BFC, MFC at 410-535, EFC at 410-510 and BOMFC and MOBFC at 405-510 nm). […] The reactions were incubated at 25°C (B. terrestris) or 30°C (A. mellifera) for a further 15 min and the data were recorded at the required excitation/emission wavelengths stated above. […] The florescence was measured as above at the corresponding wavelengths for each model substrate. […] This was then subtracted from the average fluorescence measurement of each P450 along with the average control measurements.

CYP9Q3 [2] = molecular target: T2, CYP9Q3 (Apis mellifera, UniProt A0A7M7LMV1); experiment: Activity of recombinant CYP9Q3 against fluorescent coumarin model substrates; type: biochemical, A. mellifera
Method: as §1

CYP9Q5 [3] = experiment: Activity of recombinant CYP9Q5 against fluorescent coumarin model substrates; type: biochemical, B. terrestris
Method: as §1

CYP9Q4 [4] = molecular target: T3, CYP9Q4 (Bombus terrestris, UniProt A0A9B0BBT5); experiment: Activity of recombinant CYP9Q4 against fluorescent coumarin model substrates; type: biochemical, B. terrestris
Method: The activity of individual A. mellifera and B. terrestris recombinant P450s were tested against seven fluorescent model substrates (all purchased from Sigma); 7-methoxy-coumarin (MC), 7-Methoxy-4-(tri-fluoromethyl)-coumarin (MFC), 7-ethoxy-coumarin (EC), 7-benzyloxy-4-(trifluoromethyl)-coumarin (BFC), 7-ethoxy-4-trifluoro-methylcoumarin (EFC), 7-benzyloxymethoxy-4-trifluoromethyl coumarin (BOMFC), and 7-p-methoxy-benzyloxy-4-trifluoro coumarin (MOBFC). Assays were carried out in black flat-bottomed 96-well plates in a 100 μL reaction containing 2 pmol of P450 per 50 μg of protein (B. terrestris) or 50 μg/well (A. mellifera), 1 mM of NADPH (Sigma) and […] of a model substrate (Sigma). Three replicates were carried out for each data point. P450s incubated without NADPH and wells containing only potassium phosphate buffer served as controls. Samples were incubated at 25°C for 45 min (B. terrestris) or 30°C for 30 min (A. mellifera). Data were recorded using a SpectraMax Gemini XPS (B. terrestris) or a SpectraMax M2 (A. mellifera) at the excitation/emission wavelength suitable for each model substrate (MC, EC at 390-465, BFC, MFC at 410-535, EFC at 410-510 and BOMFC and MOBFC at 405-510 nm). As these substrates have a similar emission wavelength to NADPH (460 nm) the reaction was terminated prior to measurement by the addition of 100μL of a stop solution (25% DMSO, 0.05 M Tris/HCL pH10, 5 mM glutathione oxidised, and 0.2 U glutathione reductase). The reactions were incubated at 25°C (B. terrestris) or 30°C (A. mellifera) for a further 15 min and the data were recorded at the required excitation/emission wavelengths stated above. 7-hydroxy-4-(trifluoromethyl)-coumarin (HFC) (Sigma) was used to generate a standard curve for model substrates BFC, EFC, MFC, MOBFC, and BOMFC and 7-hydroxycoumarin (HC) (Sigma) for model substrates EC and MC. […] The florescence was measured as above at the corresponding wavelengths for each model substrate. […] This was then subtracted from the average fluorescence measurement of each P450 along with the average control measurements.

CYP9Q2 = molecular target: T4, CYP9Q2 (Apis mellifera, UniProt A0A7M7R6F2); experiment: in vitro; conditions: hydroxylation (thiacloprid, imidacloprid) or N-desmethylation (acetamiprid)
T4 sequence (A0A7M7R6F2 1-532): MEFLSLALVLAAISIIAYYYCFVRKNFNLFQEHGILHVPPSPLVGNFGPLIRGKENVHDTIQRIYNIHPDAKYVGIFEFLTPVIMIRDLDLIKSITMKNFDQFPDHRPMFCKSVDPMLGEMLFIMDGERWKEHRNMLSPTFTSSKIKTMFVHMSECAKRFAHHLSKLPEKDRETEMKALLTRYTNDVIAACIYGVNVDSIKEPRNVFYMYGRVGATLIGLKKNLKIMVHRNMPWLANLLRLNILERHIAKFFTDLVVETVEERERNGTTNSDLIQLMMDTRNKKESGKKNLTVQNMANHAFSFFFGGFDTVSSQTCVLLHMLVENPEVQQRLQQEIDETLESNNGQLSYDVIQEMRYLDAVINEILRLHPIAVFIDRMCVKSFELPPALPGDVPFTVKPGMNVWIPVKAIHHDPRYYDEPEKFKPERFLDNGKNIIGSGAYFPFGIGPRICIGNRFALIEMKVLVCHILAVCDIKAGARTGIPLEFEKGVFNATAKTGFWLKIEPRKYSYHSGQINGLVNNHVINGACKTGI
T4 sequence (Q07994 1-671 partner): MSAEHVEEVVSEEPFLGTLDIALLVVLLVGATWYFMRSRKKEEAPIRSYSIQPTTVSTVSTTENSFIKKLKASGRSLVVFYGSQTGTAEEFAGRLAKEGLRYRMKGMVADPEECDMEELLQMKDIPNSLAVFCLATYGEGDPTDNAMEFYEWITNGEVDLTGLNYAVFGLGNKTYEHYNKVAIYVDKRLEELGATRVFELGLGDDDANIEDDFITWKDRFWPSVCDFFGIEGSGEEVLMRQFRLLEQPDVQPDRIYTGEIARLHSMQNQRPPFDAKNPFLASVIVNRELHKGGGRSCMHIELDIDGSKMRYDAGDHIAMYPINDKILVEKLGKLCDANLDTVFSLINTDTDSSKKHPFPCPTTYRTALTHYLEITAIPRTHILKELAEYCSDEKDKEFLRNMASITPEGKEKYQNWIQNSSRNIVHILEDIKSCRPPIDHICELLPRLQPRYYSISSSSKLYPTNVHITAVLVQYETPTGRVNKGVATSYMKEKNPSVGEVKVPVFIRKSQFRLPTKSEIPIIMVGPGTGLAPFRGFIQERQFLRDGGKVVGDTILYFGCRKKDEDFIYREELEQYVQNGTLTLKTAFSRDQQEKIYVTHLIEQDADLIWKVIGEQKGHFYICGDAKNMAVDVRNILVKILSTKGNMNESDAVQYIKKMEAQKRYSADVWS
Excerpt: (§2) All bee P450 (see Table S3 for accession numbers) and house fly NADPH-dependent cytochrome P450 reductase (CPR) (GenBank accession number Q07994) genes were obtained by gene synthesis (Geneart, CA, USA) and inserted into the pDEST8 expression vector (Invitrogen). Codon optimization of all bee genes was used to optimize expression in lepidopteran cell lines. The PFastbac1 vector with no inserted DNA was used to produce a control virus. The recombinant baculovirus DNA was constructed and transfected into Trichoplusia ni (High five cells, Thermo Fisher) using the Bac-to-Bac baculovirus expression system (Invitrogen) according to the manufacturer’s instructions. The titer of the recombinant virus was determined following protocols of the supplier. High Five cells grown to a density of 2 × 10^6 cells ml^-1 were co-infected with recombinant baculoviruses containing each bee P450 and CPR with a range of MOI (multiplicity of infection) ratios to identify the optimal conditions. Control cells were co-infected with the baculovirus containing vector with no insert (ctrl-virus) and the recombinant baculovirus expressing CPR using the same MOI ratios. Ferric citrate and δ-aminolevulinic acid hydrochloride were added to a final concentration of 0.1 mM at the time of infection and 24 h after infection to compensate the low levels of endogenous heme in the insect cells. After 48 h, cells were harvested, washed with PBS, and microsomes of the membrane fraction prepared according to standard procedures and stored at −80°C [31]. Briefly, pellets were homogenized for 30 s in 0.1M Na/K-phosphate buffer, pH 7.4 containing 1mM EDTA and DTT and 200mM sucrose using a Fastprep (MP Biomedicals), filtered through miracloth and centrifuging for 10 min at 680 g at 4°C. The supernatant was then centrifuged for 1 h at 100,000 g at 4°C, with the pellet subsequently resuspended in 0.1M Na/K-phosphate buffer, pH 7.6 containing 1mM EDTA and DTT and 10% glycerol using a Dounce tissue grinder. P450 expression and functionality was estimated by measuring CO-difference spectra in reduced samples using a Specord 200 Plus Spectrophotometer (Analytik Jena) and scanning from 500 nm to 400 nm. The protein content of samples was determined using Bradford reagent (Sigma) and bovine serum albumin (BSA) as a reference.
(§3) The total assay volume was 200 μL using three replicates for each data point. Microsomes incubated without NADPH served as a control. The assay was stopped by the addition of ice-cold acetonitrile (to 80% final concentration), centrifuged for 10 min at 3000 g and the supernatant subsequently analyzed by tandem mass spectrometry as described previously. For the chromatography on a Waters Acquity HSS T3 column (2.1x50mm, 1.8μm), acetonitrile/water/0.1% formic acid was used as the eluent in gradient mode. […] The peak integrals were calibrated externally against a standard calibration curve. […] Substrate turnover from two independent reactions were plotted versus controls and Michaelis-Menten kinetics determined using GraphPad Prism version 7 (GraphPad Software, CA, USA).

CYP9Q3 [5] = molecular target: T2, CYP9Q3; experiment: in vitro; conditions: hydroxylation (thiacloprid, imidacloprid) or N-desmethylation (acetamiprid)
Excerpt: as §2, §3

CYP9Q1 [6] = molecular target: T1, CYP9Q1; experiment: in vitro; conditions: hydroxylation (thiacloprid, imidacloprid) or N-desmethylation (acetamiprid)
Excerpt: as §2, §3

CYP9Q5 [7] = experiment: Metabolism by recombinant CYP9Q5/CPR microsomes, LC-MS/MS; conditions: hydroxylation (thiacloprid) or N-desmethylation (acetamiprid)
Excerpt: as §2
(§4) The total assay volume was 200 μL using three replicates for each data point. […] The assay was stopped by the addition of ice-cold acetonitrile (to 80% final concentration), centrifuged for 10 min at 3000 g and the supernatant subsequently analyzed by tandem mass spectrometry as described previously. […] Substrate turnover from two independent reactions were plotted versus controls and Michaelis-Menten kinetics determined using GraphPad Prism version 7 (GraphPad Software, CA, USA).

CYP9Q4 [8] = molecular target: T3, CYP9Q4; experiment: Metabolism by recombinant CYP9Q4/CPR microsomes, LC-MS/MS; conditions: hydroxylation (thiacloprid) or N-desmethylation (acetamiprid)
Excerpt: as §2, §4

honeybee = conditions: cited from earlier work

T3 sequence (A0A9B0BBT5 entry or part of it, one chain of several): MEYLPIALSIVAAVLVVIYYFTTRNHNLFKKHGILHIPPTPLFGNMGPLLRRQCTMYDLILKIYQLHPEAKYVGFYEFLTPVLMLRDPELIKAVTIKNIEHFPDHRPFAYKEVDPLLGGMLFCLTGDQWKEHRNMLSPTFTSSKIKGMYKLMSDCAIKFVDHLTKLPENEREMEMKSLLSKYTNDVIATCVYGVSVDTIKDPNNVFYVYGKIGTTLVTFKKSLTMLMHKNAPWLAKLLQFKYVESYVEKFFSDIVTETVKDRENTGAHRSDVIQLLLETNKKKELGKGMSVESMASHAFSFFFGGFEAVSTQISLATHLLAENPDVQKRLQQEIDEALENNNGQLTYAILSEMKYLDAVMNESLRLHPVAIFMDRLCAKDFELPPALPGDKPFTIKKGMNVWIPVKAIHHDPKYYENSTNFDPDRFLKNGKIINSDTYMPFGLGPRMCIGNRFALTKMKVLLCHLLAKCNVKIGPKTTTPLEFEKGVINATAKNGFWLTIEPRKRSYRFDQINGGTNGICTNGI
T1 sequence (A0A7M7GTV9 entry or part of it, one chain of several): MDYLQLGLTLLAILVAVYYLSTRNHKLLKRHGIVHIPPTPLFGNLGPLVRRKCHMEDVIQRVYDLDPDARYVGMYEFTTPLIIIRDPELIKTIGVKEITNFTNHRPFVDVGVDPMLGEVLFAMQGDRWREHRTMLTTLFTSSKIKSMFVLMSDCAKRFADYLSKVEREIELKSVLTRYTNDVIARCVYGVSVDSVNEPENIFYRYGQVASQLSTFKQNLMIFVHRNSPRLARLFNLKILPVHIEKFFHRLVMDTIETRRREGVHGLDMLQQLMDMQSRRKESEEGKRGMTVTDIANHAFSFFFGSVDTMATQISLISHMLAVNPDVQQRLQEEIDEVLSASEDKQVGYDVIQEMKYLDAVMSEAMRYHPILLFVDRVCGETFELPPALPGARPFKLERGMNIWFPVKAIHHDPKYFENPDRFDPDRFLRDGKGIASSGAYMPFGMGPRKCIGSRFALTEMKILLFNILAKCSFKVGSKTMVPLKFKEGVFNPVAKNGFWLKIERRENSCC
T2 sequence (A0A7M7LMV1 entry or part of it, one chain of several): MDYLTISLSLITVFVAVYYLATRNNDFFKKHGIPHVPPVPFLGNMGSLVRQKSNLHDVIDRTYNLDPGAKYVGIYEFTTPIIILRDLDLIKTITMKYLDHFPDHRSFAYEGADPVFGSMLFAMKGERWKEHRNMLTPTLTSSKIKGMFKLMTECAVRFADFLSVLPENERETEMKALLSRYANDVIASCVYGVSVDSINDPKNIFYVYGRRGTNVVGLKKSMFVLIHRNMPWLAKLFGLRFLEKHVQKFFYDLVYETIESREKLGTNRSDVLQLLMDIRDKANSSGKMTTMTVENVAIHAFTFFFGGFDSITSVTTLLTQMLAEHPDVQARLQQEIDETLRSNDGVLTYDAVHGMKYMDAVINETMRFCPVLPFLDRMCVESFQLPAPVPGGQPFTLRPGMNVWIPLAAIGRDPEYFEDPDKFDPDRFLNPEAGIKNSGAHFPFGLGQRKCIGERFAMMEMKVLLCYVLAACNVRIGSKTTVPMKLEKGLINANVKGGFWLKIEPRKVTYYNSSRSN

SMILES: O=c1cc(C(F)(F)F)c2ccc(OCc3ccccc3)cc2o1 [BFC, 7-benzyloxy-4-trifluoromethyl coumarin]
- activity against fluorescent coumarin model substrate (in words) (CYP9Q1 [1]): highest specific activity
- activity against fluorescent coumarin model substrate (in words) (CYP9Q3 [2]): highest specific activity
- activity against fluorescent coumarin model substrate (in words) (CYP9Q5 [3]): no activity
- activity against fluorescent coumarin model substrate (in words) (CYP9Q4 [4]): no activity

SMILES: COc1ccc2c(C(F)(F)F)cc(=O)oc2c1 [MFC, 7-methoxy-4-trifluoromethyl coumarin]
- activity against fluorescent coumarin model substrate (in words) (CYP9Q4 [4]): activity

SMILES: COc1ccc(COc2ccc3c(C(F)(F)F)cc(=O)oc3c2)cc1 [MOBFC, 7-p-methoxy-benzyloxy-4-trifluoro coumarin]
- activity against fluorescent coumarin model substrate (in words) (CYP9Q4 [4]): activity

SMILES: C/C(=N\C#N)N(C)Cc1ccc(Cl)nc1 [acetamiprid]
- metabolism by the recombinant P450 (in words) (CYP9Q2): highest activity
- metabolism by the recombinant P450 (in words) (CYP9Q3 [5]): highest activity
- metabolism by the recombinant P450 (in words) (CYP9Q1 [6]): capacity to metabolize
- metabolism by the recombinant P450 (in words) (CYP9Q5 [7]): highest activity
- metabolism by the recombinant P450 (in words) (CYP9Q4 [8]): highest activity

SMILES: CCCC1COC(Cn2cncn2)(c2ccc(Cl)cc2Cl)O1 (stereo not shown) [propiconazole]
- effect of P450 inhibitor on honeybee sensitivity to imidacloprid (honeybee; synergist plus imidacloprid): almost no effect
- increase of honeybee sensitivity to thiacloprid by P450 inhibitor (honeybee; synergist plus thiacloprid): 559 fold
